This note sets out measurements from PubChem BioAssay (NCI).

Among the test systems are UACC-62 melanoma; UO-31 renal; SF-295 CNS; KM12 colon; CCRF-CEM leukemia; SK-OV-3 ovarian; A549 NSCLC; CAKI-1 renal.
Common to all, as to assay: NCI-60 cell line screen, 48 h

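In this assay, cells in 96-well plates receive the compound at five concentrations for 48 hours. Endpoints are linearly interpolated between the surrounding concentrations. At the GI50, growth is halved. The concentration for full growth arrest is given as TGI.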 Where only a bound is given, the exact number is not on record here.

Consider `Cc1ccccc1N=Cc1ccc(N(CCC#N)S(=O)(=O)c2ccccc2)cc1`, for which the TGI with UACC-62 melanoma, in the assay on UO-31 renal, in the assay on SF-295 CNS, in the assay on KM12 colon, in the assay on CCRF-CEM leukemia and in the assay on SK-OV-3 ovarian was greater than 100 µM in each case. Further, the TGI in the assay with A549 NSCLC and with CAKI-1 renal was greater than 100 µM throughout.
On to `[N-]=[N+]=Nc1ccccc1-[n+]1noc([O-])c1Br`, for which the TGI with UACC-62 melanoma, with UO-31 renal, in the assay on SF-295 CNS, in the assay on KM12 colon, in the assay with CCRF-CEM leukemia and in the assay with SK-OV-3 ovarian was greater than 100 µM throughout. Besides, the TGI with A549 NSCLC and in the assay on CAKI-1 renal was greater than 100 µM each time.
Take `COc1ccc2nc3cc(Cl)ccc3c(NCCC(=O)OCC(O)C(O)C(O[C@H](C)C(=O)NC(C)C(=O)NC(CCC(N)=O)C(=O)OCc3ccccc3)C(C=O)NC(C)=O)c2c1` (stereo not given in full): the TGI is 34 µM in the assay with UACC-62 melanoma; 34.7 µM in the assay on UO-31 renal; 34.3 µM in the assay with SF-295 CNS; 41.7 µM with KM12 colon; greater than 100 µM in the assay with CCRF-CEM leukemia; 33 µM in the assay with SK-OV-3 ovarian. Moreover, the TGI with A549 NSCLC stood at 32.4 µM; in the assay with CAKI-1 renal it was 40.9 µM.
`C[C@]12CCC3[C@@H](C[C@H]4OC(=O)[C@@]35CCC(=O)C=C45)C1CCC2=O` (stereo not given in full): the TGI in the assay with UO-31 renal, with SF-295 CNS, with KM12 colon, in the assay on CCRF-CEM leukemia, with SK-OV-3 ovarian and in the assay with A549 NSCLC was greater than 100 µM in each case.
For the molecule `COC(=O)CCC(=O)CC(=O)C(=O)Nc1ccc(F)cc1`, the TGI with UACC-62 melanoma, in the assay on UO-31 renal, in the assay on KM12 colon, in the assay on CCRF-CEM leukemia, in the assay with SK-OV-3 ovarian and with A549 NSCLC was greater than 100 µM each time. In addition, the TGI in the assay with CAKI-1 renal was greater than 100 µM.
On to `COc1ccc(C(=O)C(c2ccc(OC)cc2)C2C(=O)Oc3ccccc32)cc1` (stereo not given), for which the GI50 in the assay on UACC-62 melanoma, in the assay on SF-295 CNS, in the assay with KM12 colon, with CCRF-CEM leukemia, with SK-OV-3 ovarian and in the assay on A549 NSCLC was greater than 100 µM in each case. For the same molecule, the TGI in the assay with UACC-62 melanoma was greater than 100 µM; with UO-31 renal, 51.1 µM; in the assay on SF-295 CNS, greater than 100 µM; in the assay on KM12 colon it was greater than 100 µM; with CCRF-CEM leukemia, greater than 100 µM; with SK-OV-3 ovarian, greater than 100 µM. Further, in the assay with A549 NSCLC, the TGI was greater than 100 µM.
As for `Cc1cc(C)nc(NS(=O)(=O)c2ccc(NC(=O)c3cccc4c(Nc5ccc(S(=O)(=O)Nc6nc(C)cc(C)n6)cc5)c5ccccc5nc34)cc2)n1`, the TGI in the assay with UACC-62 melanoma is 57.3 µM; in the assay on UO-31 renal it was 37.3 µM; in the assay with SF-295 CNS, 51.5 µM; in the assay with KM12 colon, 44.3 µM; in the assay on CCRF-CEM leukemia, 69.6 µM; with SK-OV-3 ovarian it was 57.2 µM. Besides, the TGI with A549 NSCLC is 68.2 µM; in the assay on CAKI-1 renal it was 51.6 µM.
As for `Nc1nc(=O)n(C2CC(O)C(O)C(CO)O2)cc1F` (stereo not given), the TGI in the assay on UACC-62 melanoma, in the assay on UO-31 renal, with SF-295 CNS, with CCRF-CEM leukemia and in the assay with A549 NSCLC was greater than 100 µM in each case.
Regarding `COc1ccc2c(c1)CCc1cnn(C3OC(COC(C)=O)C(OC(C)=O)C(OC(C)=O)C3OC(C)=O)c1-2` (stereo not given), the TGI is greater than 100 µM with UACC-62 melanoma; greater than 100 µM with SF-295 CNS; greater than 100 µM in the assay with KM12 colon; 60.5 µM in the assay on CCRF-CEM leukemia; greater than 100 µM in the assay with A549 NSCLC; greater than 100 µM in the assay with CAKI-1 renal.
With `COCC1C(=O)c2cc3c(cc2C12C=CC1(C=C2)OCCO1)OCO3` (stereo not given), the TGI in the assay on UACC-62 melanoma amounted to 24.6 µM; in the assay on SF-295 CNS, 27.9 µM; in the assay with KM12 colon, 18.2 µM; in the assay with CCRF-CEM leukemia, 4.38 µM; with SK-OV-3 ovarian it was 29.7 µM; in the assay on A549 NSCLC it was 28.9 µM. For the same molecule, in the assay on CAKI-1 renal, the TGI came to 29.8 µM.
As to `COc1ccc(C(=O)/C(=N/Nc2ccccc2)c2ccc(OC)cc2)cc1`, the TGI in the assay with UACC-62 melanoma, with UO-31 renal, in the assay on SF-295 CNS, in the assay with KM12 colon, in the assay with SK-OV-3 ovarian and with A549 NSCLC was greater than 100 µM throughout. This molecule also displayed a TGI with CAKI-1 renal greater than 100 µM.
For `Cc1cc2c(cc1C)N1Cc3c(ccc(C)c3C)N(C2)C1` (tested in a mixture with another compound), the TGI in the assay with UACC-62 melanoma, in the assay on SF-295 CNS, in the assay on KM12 colon, in the assay on CCRF-CEM leukemia, in the assay with SK-OV-3 ovarian and in the assay with A549 NSCLC was greater than 100 µM throughout.
With `O=c1c2cc(Br)ccc2[nH]c(=S)n1-c1ccc(Br)cc1`, the TGI in the assay with UO-31 renal, in the assay on SF-295 CNS, with KM12 colon and with A549 NSCLC was greater than 100 µM in each case.
For `O=C(CC1(O)C(=O)Nc2c(Cl)cccc21)c1ccccc1` (stereo not given), the TGI in the assay on UO-31 renal, in the assay on SF-295 CNS, in the assay with KM12 colon, in the assay on CCRF-CEM leukemia, in the assay with SK-OV-3 ovarian and in the assay on A549 NSCLC was greater than 100 µM throughout. Moreover, the TGI with CAKI-1 renal was greater than 100 µM.
